According to patent US8937062B2, “Compositions and methods for treating, reducing, ameliorating, or preventing infections caused by antibacterial drug-resistant bacteria” (Bausch & Lomb Incorporated, priority 2007, dated 2015):
Values after ≈ are worked out from the molar mass of the structure shown. Where two headings read alike, the source gives them in different places.

Tests used:
[1] = test system: E. cloacae, extended-spectrum β-lactamase positive; assay: MIC90, broth microdilution (CLSI M7-A7), Table 4; format: cell-based; settings: Enterobacter cloacae, 15 isolates
Experimental: (§1) The MIC90 values were determined according to the broth microdilution method outlined in the Clinical and Laboratory Standards Institute Approved Standard M7-A7 (2006).

[2] = test system: H. influenzae, β-lactamase positive, ampicillin-resistant; assay: MIC90, broth microdilution (CLSI M7-A7), Table 4; format: cell-based; settings: 25 isolates; for MIC90: Haemophilus influenzae
Experimental: as §1

[3] = test system: H. influenzae, β-lactamase positive; assay: MIC90, broth microdilution (CLSI M7-A7), Table 4; format: cell-based; settings: Haemophilus influenzae, 53 isolates
Experimental: as §1

[4] = test system: S. aureus, methicillin- and ciprofloxacin-resistant; assay: MIC90, broth microdilution (CLSI M7-A7), Table 4; format: cell-based; settings: Staphylococcus aureus, 24 isolates
Experimental: as §1

[5] = test system: S. aureus, methicillin-resistant and ciprofloxacin-sensitive; assay: MIC90, broth microdilution (CLSI M7-A7), Table 4; format: cell-based; settings: 25 isolates; for MIC90: Staphylococcus aureus
Experimental: as §1

[6] = test system: S. aureus, vancomycin-intermediately resistant; assay: MIC90, broth microdilution (CLSI M7-A7), Table 4; format: cell-based; settings: Staphylococcus aureus, 23 isolates
Experimental: as §1

[7] = test system: S. aureus, vancomycin-resistant; assay: MIC90, broth microdilution (CLSI M7-A7), Table 4; format: cell-based; settings: Staphylococcus aureus, 3 isolates, read-out: MIC90 Geometric Mean
Experimental: as §1

[8] = test system: S. epidermidis, methicillin-resistant; assay: MIC90, broth microdilution (CLSI M7-A7), Table 4; format: cell-based; settings: Staphylococcus epidermidis, 64 isolates
Experimental: as §1

[9] = test system: S. pneumoniae, levofloxacin-resistant; assay: MIC90, broth microdilution (CLSI M7-A7), Table 4; format: cell-based; settings: Streptococcus pneumoniae, 25 isolates
Experimental: as §1

[10] = test system: S. pneumoniae, penicillin-intermediately resistant; assay: MIC90, broth microdilution (CLSI M7-A7), Table 4; format: cell-based; settings: Streptococcus pneumoniae, 26 isolates
Experimental: as §1

[11] = test system: S. pneumoniae, penicillin-resistant; assay: MIC90, broth microdilution (CLSI M7-A7), Table 4; format: cell-based; settings: 26 isolates; for MIC90: Streptococcus pneumoniae
Experimental: as §1

[12] = test system: S. aureus Clinical Isolates; assay: In vitro activity against clinical isolates, sixth test, Table 7; format: cell-based; settings: Staphylococcus aureus, 49 isolates
[13] = test system: S. pneumoniae Clinical Isolates; assay: as above; format: cell-based; settings: 78 isolates; for MIC90: Streptococcus pneumoniae
[14] = test system: Methicillin-Resistant S. aureus Isolates; assay: In vitro anti-bacterial activity, fourth test, Table 5; format: cell-based, Staphylococcus aureus; settings: Staphylococcus aureus, read-out: MIC90
Experimental: In a fourth test, the anti-bacterial activity of the compound having Formula IV was tested against some methicillin-resistant S. aureus bacteria strains and compared to the anti-bacterial activity of three commercially available antibiotics: nadifloxacin (“NDFX”), ofloxacin (“OFLX”), and sparfloxacin (“SPFX”).

[15] = test system: APC-resistant Haemophilus influenza.; assay: MIC90, agar plate dilution method (NCCLS), Table 2; format: cell-based; settings: for MIC90: Haemophilus
Experimental: (§2) The MIC90 values for this test were determined by the agar plate dilution method according to the National Committee for Clinical Laboratory Standards (“NCCLS”).

[16] = test system: GM-resistant P. aeruginosa; assay: MIC90, agar plate dilution method (NCCLS), Table 2; format: cell-based; settings: 10 isolates
Experimental: as §2

GM-resistant S. aureus = assay: MIC90, agar plate dilution method (NCCLS), Table 2; format: cell-based; settings: Staphylococcus aureus, 10 isolates, read-out: MIC90 Geometric Mean
Experimental: as §2

[17] = test system: OFLX-resistant Enterobacteriaceae; assay: MIC90, agar plate dilution method (NCCLS), Table 2; format: cell-based
Experimental: as §2

OFLX-resistant S. aureus = assay: MIC90, agar plate dilution method (NCCLS), Table 2; format: cell-based; settings: Staphylococcus aureus, 10 isolates, read-out: MIC90 Geometric Mean
Experimental: as §2

[18] = test system: PCG-resistant S. pneumoniae; assay: MIC90, agar plate dilution method (NCCLS), Table 2; format: cell-based; settings: 10 isolates
Experimental: as §2

[19] = test system: methicillin-resistant S. aureus; assay: MIC90, Japanese Society of Chemotherapy guidelines (1993), Table 3; format: cell-based; settings: Staphylococcus aureus, read-out: MIC90
Experimental: (§3) In a second test, compounds having Formulae IV and V, their racemic mixture, and OFLX were tested in vitro against S. aureus strains that are resistant to methicillin or penicillin. The test was conducted according to the guidelines of the Japanese Society of Chemotherapy (1993).

[20] = test system: penicillin-resistant S. aureus; assay: as above; format: cell-based; settings: Staphylococcus aureus, read-out: MIC90
Experimental: as §3

In the case of COc1c(N2CCNC(C)C2)c(F)cc2c(=O)c(C(=O)O)cn(C3CC3)c12 (stereo not shown) [GTFX, gatifloxacin], the MIC90 ([1]; read-out: MIC90 Geometric Mean) is reported as 1.58 µg/mL (≈ 4.21 µM), the MIC90 ([1]; read-out: MIC90 Value) is reported as > 8 µg/mL and the “MIC90 Range” value [2] is reported as 0.008 to 0.06 µg/mL. It also gave an MIC90 ([2]; read-out: MIC90 Geometric Mean) of 0.022 µg/mL (≈ 0.0586 µM), an MIC90 ([2]; read-out: MIC90 Value) of 0.03 µg/mL (≈ 0.0799 µM) and an MIC90 ([3]; read-out: MIC90 Geometric Mean) of 0.014 µg/mL (≈ 0.0373 µM). The MIC90 ([3]; read-out: MIC90 Value) was 0.03 µg/mL (≈ 0.0799 µM), the MIC90 ([4]; read-out: MIC90 Geometric Mean) was > 8 µg/mL and the MIC90 ([4]; read-out: MIC90 Value) was > 8 µg/mL. The “MIC90 Range” value [5] was 0.03 to 8 µg/mL, the MIC90 ([5]; read-out: MIC90 Geometric Mean) was 0.099 µg/mL (≈ 0.264 µM) and the MIC90 ([5]; read-out: MIC90 Value) was 0.12 µg/mL (≈ 0.32 µM). For the same compound, the MIC90 ([6]; read-out: MIC90 Geometric Mean) was 3.65 µg/mL (≈ 9.72 µM), the MIC90 ([6]; read-out: MIC90 Value) was 8 µg/mL (≈ 21.3 µM) and the MIC90 [7] was 6.35 µg/mL (≈ 16.9 µM). The MIC90 ([8]; read-out: MIC90 Geometric Mean) was 1.43 µg/mL (≈ 3.8 µM), the MIC90 ([8]; read-out: MIC90 Value) was > 8 µg/mL and the MIC90 ([9]; read-out: MIC90 Geometric Mean) was 5.43 µg/mL (≈ 14.5 µM). For the same compound, the MIC90 ([9]; read-out: MIC90 Value) was > 8 µg/mL, the MIC90 ([10]; read-out: MIC90 Geometric Mean) was 0.344 µg/mL (≈ 0.916 µM) and the MIC90 ([10]; read-out: MIC90 Value) was 0.5 µg/mL (≈ 1.33 µM). The “MIC90 Range” value [11] was 0.12 to 0.5 µg/mL, the MIC90 ([11]; read-out: MIC90 Geometric Mean) was 0.293 µg/mL (≈ 0.781 µM) and the MIC90 ([11]; read-out: MIC90 Value) was 0.5 µg/mL (≈ 1.33 µM). For the same compound, the MIC90 [12] was 2 µg/mL (≈ 5.33 µM), the “MIC90 Range” value [13] was 0.12 to 0.5 µg/mL and the MIC90 [13] was 0.25 µg/mL (≈ 0.666 µM).
In the case of C[C@H]1COc2c(N3CCN(C)CC3)c(F)cc3c(=O)c(C(=O)O)cn1c23 [LVFX, levofloxacin], the MIC90 [12] is reported as 4 µg/mL (≈ 11.1 µM), the “MIC90 Range” value [13] is reported as 0.5 to 2 µg/mL and the MIC90 [13] is reported as 1 µg/mL (≈ 2.77 µM).
With CC1CCc2c(N3CCC(O)CC3)c(F)cc3c(=O)c(C(=O)O)cn1c23 (stereo not shown) [NDFX, nadifloxacin] the MIC90 ([14]; ATCC33591, Staphylococcus aureus (ATCC 33591)) was 0.006 µg/mL (≈ 0.0166 µM), the MIC90 ([14]; ATCC33592, Staphylococcus aureus (ATCC 33592)) was 0.05 µg/mL (≈ 0.139 µM) and the MIC90 ([14]; ATCC33593, Staphylococcus aureus (ATCC 33593)) was 0.024 µg/mL (≈ 0.0666 µM). For the same compound, the MIC90 ([14]; Staphylococcus aureus (No. 395)) was 0.024 µg/mL (≈ 0.0666 µM), the MIC90 ([14]; Staphylococcus aureus (No. 415)) was 0.1 µg/mL (≈ 0.277 µM) and the MIC90 ([14]; Staphylococcus aureus (No. 419)) was 0.39 µg/mL (≈ 1.08 µM). For the same compound, the MIC90 ([14]; Staphylococcus aureus (No. 420)) was 0.78 µg/mL (≈ 2.16 µM) and the MIC90 ([14]; Staphylococcus aureus (No. 421)) was 0.78 µg/mL (≈ 2.16 µM).
For O=C(O)c1cn(C2CC2)c2cc(N3CCNCC3)c(F)cc2c1=O [CPLX, ciprofloxacin], the “MIC90 Range” value ([15]; APC-resistant Haemophilus influenza., 10 isolates) was “≦0.06 μg/ml”, the MIC90 ([15]; read-out: MIC90 Geometric Mean) was ≤ 0.06 µg/mL and the MIC90 ([15]; read-out: MIC90 Value) was ≤ 0.06 µg/mL. The “MIC90 Range” value [16] was 0.13 to 32 µg/mL, the MIC90 ([16]; Pseudomonas aeruginosa, read-out: MIC90 Geometric Mean) was 1.87 µg/mL (≈ 5.64 µM) and the MIC90 (GM-resistant S. aureus) was 26 µg/mL (≈ 78.5 µM). The “MIC90 Range” value ([17]; OFLX-resistant Enterobacteriaceae, 10 isolates) was 4 to 32 µg/mL, the MIC90 ([17]; read-out: MIC90 Geometric Mean) was 10.6 µg/mL (≈ 32 µM) and the MIC90 (OFLX-resistant S. aureus) was 147 µg/mL (≈ 444 µM). The “MIC90 Range” value [18] was 0.5 to 2 µg/mL.
N[C@H]1CCCCN(c2c(F)cc3c(=O)c(C(=O)O)cn(C4CC4)c3c2Cl)C1 [V] gave an MIC90 ([19]; ATCC33591, S. aureus (ATCC 33591)) of 0.1 µg/mL (≈ 0.254 µM), an MIC90 ([19]; ATCC33592, S. aureus (ATCC 33592)) of 0.05 µg/mL (≈ 0.127 µM) and an MIC90 ([19]; ATCC33593, S. aureus (ATCC 33593)) of 0.05 µg/mL (≈ 0.127 µM). For the same compound, the MIC90 ([19]; S. aureus (No. 395)) was 0.1 µg/mL (≈ 0.254 µM), the MIC90 ([19]; S. aureus (No. 415)) was 0.05 µg/mL (≈ 0.127 µM) and the MIC90 ([19]; S. aureus (No. 419)) was 0.1 µg/mL (≈ 0.254 µM). The MIC90 ([19]; S. aureus (No. 420)) was 0.05 µg/mL (≈ 0.127 µM), the MIC90 ([19]; S. aureus (No. 421)) was 0.1 µg/mL (≈ 0.254 µM) and the MIC90 ([20]; ATCC11632, S. aureus (ATCC 11632)) was 0.05 µg/mL (≈ 0.127 µM). For the same compound, the MIC90 ([20]; ATCC13301, S. aureus (ATCC 13301)) was 0.05 µg/mL (≈ 0.127 µM).
